# ChEMBL document CHEMBL4229379, “Synthesis and structure-activity relationship of novel bisindole amidines active against MDR Gram-positive and Gram-negative bacteria” (Eur J Med Chem, 2018)
# Assays:
# Pseudomonas aeruginosa [1] = experiment: Antibacterial activity against Pseudomonas aeruginosa PAO1 after 18 hrs by CLSI broth microdilution method; type: functional; conditions: PAO1, 18 h
# Serratia marcescens = experiment: Antibacterial activity against Serratia marcescens ATCC 21074 after 18 hrs by CLSI broth microdilution method; type: functional; conditions: ATCC 21074, 18 h
# Pseudomonas aeruginosa [2] = experiment: Antibacterial activity against Pseudomonas aeruginosa 12-16 after 18 hrs by CLSI broth microdilution method; type: functional; conditions: 12-16, 18 h
# Enterococcus faecalis [3] = experiment: Antibacterial activity against vancomycin-sensitive Enterococcus faecalis 12-5 after 18 hrs by CLSI broth microdilution method; type: functional; conditions: 12-5, 18 h
# Klebsiella pneumoniae [4] = experiment: Antibacterial activity against extended-spectrum beta-lactamase deficient Klebsiella pneumoniae 12-4 after 18 hrs by CLSI broth microdilution method; type: functional; conditions: 12-4, 18 h
# Klebsiella pneumoniae [5] = experiment: Antibacterial activity against extended-spectrum beta-lactamase harboring Klebsiella pneumoniae 12-8 after 18 hrs by CLSI broth microdilution method; type: functional; conditions: 12-8, 18 h
# Citrobacter freundii = experiment: Antibacterial activity against Citrobacter freundii ATCC 43864 after 18 hrs by CLSI broth microdilution method; type: functional; conditions: ATCC 43864, 18 h
# [6] = system: Staphylococcus epidermidis; experiment: Antibacterial activity against methicillin-sensitive Staphylococcus epidermidis 12-6 after 18 hrs by CLSI broth microdilution method; type: functional; conditions: 12-6, 18 h
# Staphylococcus aureus [7] = experiment: Antibacterial activity against methicillin-resistant Staphylococcus aureus 12-33 after 18 hrs by CLSI broth microdilution method; type: functional; conditions: 12-33, 18 h
# Staphylococcus aureus [8] = experiment: Antibacterial activity against methicillin-sensitive Staphylococcus aureus 12-28 after 18 hrs by CLSI broth microdilution method; type: functional; conditions: 12-28, 18 h
# Enterococcus faecalis [9] = experiment: Antibacterial activity against vancomycin-resistant Enterococcus faecalis 09-9 after 18 hrs by CLSI broth microdilution method; type: functional; conditions: 09-9, 18 h
# Klebsiella pneumoniae [10] = experiment: Antibacterial activity against extended-spectrum beta-lactamase deficient Klebsiella pneumoniae 7 after 18 hrs by CLSI broth microdilution method; type: functional; conditions: Klebsiella pneumoniae, 7, 18 h
# Klebsiella pneumoniae [11] = experiment: Antibacterial activity against extended-spectrum beta-lactamase harboring Klebsiella pneumoniae ATCC 700603 after 18 hrs by CLSI broth microdilution method; type: functional; conditions: Klebsiella pneumoniae, 700603, 18 h
# Enterococcus faecalis [12] = experiment: Antibacterial activity against vancomycin-resistant Enterococcus faecalis ATCC 51299 after 18 hrs by CLSI broth microdilution method; type: functional; conditions: ATCC 51299, 18 h
# [13] = Cytotoxicity against HEK293T cells assessed as reduction in cell viability after 48 hrs by MTS assay; type: cell-based, HEK-293T; conditions: human
# [14] = system: Staphylococcus epidermidis; experiment: Antibacterial activity against methicillin-sensitive Staphylococcus epidermidis ATCC 12228 after 18 hrs by CLSI broth microdilution method; type: functional; conditions: ATCC 12228, 18 h
# Escherichia coli [15] = experiment: Antibacterial activity against extended-spectrum beta-lactamase deficient Escherichia coli ATCC 25922 after 18 hrs by CLSI broth microdilution method; type: functional; conditions: ATCC 25922, 18 h
# Proteus mirabilis = experiment: Antibacterial activity against Proteus mirabilis 12-6 after 18 hrs by CLSI broth microdilution method; type: functional; conditions: 12-6, 18 h
# Proteus vulgaris = experiment: Antibacterial activity against Proteus vulgaris ATCC 29905 after 18 hrs by CLSI broth microdilution method; type: functional; conditions: ATCC 29905, 18 h
# Staphylococcus aureus [16] = experiment: Antibacterial activity against methicillin-sensitive Staphylococcus aureus 15 after 18 hrs by CLSI broth microdilution method; type: functional; conditions: Staphylococcus aureus, 15, 18 h
# Enterobacter cloacae = experiment: Antibacterial activity against Enterobacter cloacae ATCC 43560 after 18 hrs by CLSI broth microdilution method; type: functional; conditions: ATCC 43560, 18 h
# Staphylococcus aureus [17] = experiment: Antibacterial activity against methicillin-resistant Staphylococcus aureus ATCC 33591 after 18 hrs by CLSI broth microdilution method; type: functional; conditions: ATCC 33591, 18 h
# Pseudomonas aeruginosa [18] = experiment: Antibacterial activity against Pseudomonas aeruginosa ATCC 27853 after 18 hrs by CLSI broth microdilution method; type: functional; conditions: ATCC 27853, 18 h
# Enterococcus faecium [19] = experiment: Antibacterial activity against vancomycin-sensitive Enterococcus faecium 12-3 after 18 hrs by CLSI broth microdilution method; type: functional; conditions: 12-3, 18 h
# Enterococcus faecium [20] = experiment: Antibacterial activity against vancomycin-resistant Enterococcus faecium 12-1 after 18 hrs by CLSI broth microdilution method; type: functional; conditions: 12-1, 18 h
# [21] = system: Stenotrophomonas maltophilia; experiment: Antibacterial activity against Stenotrophomonas maltophilia ATCC 13636 after 18 hrs by CLSI broth microdilution method; type: functional; conditions: ATCC 13636, 18 h
# Escherichia coli [22] = experiment: Antibacterial activity against extended-spectrum beta-lactamase deficient Escherichia coli 12-14 after 18 hrs by CLSI broth microdilution method; type: functional; conditions: 12-14, 18 h
# [23] = system: Staphylococcus epidermidis; experiment: Antibacterial activity against methicillin-resistant Staphylococcus epidermidis 12-8 after 18 hrs by CLSI broth microdilution method; type: functional; conditions: 12-8, 18 h
# Klebsiella aerogenes = experiment: Antibacterial activity against Enterobacter aerogenes ATCC 13048 after 18 hrs by CLSI broth microdilution method; type: functional; conditions: ATCC 13048, 18 h
# Staphylococcus aureus [24] = experiment: Antibacterial activity against methicillin-sensitive Staphylococcus aureus ATCC 29213 after 18 hrs by CLSI broth microdilution method; type: functional; conditions: ATCC 29213, 18 h
# Enterococcus faecalis [25] = experiment: Antibacterial activity against vancomycin-sensitive Enterococcus faecalis ATCC 29212 after 18 hrs by CLSI broth microdilution method; type: functional; conditions: ATCC 29212, 18 h
# Providencia rettgeri = experiment: Antibacterial activity against Providencia rettgeri ATCC 31052 after 18 hrs by CLSI broth microdilution method; type: functional; conditions: ATCC 31052, 18 h
# [26] = system: Acinetobacter calcoaceticus; experiment: Antibacterial activity against Acinetobacter calcoaceticus ATCC 19606 after 18 hrs by CLSI broth microdilution method; type: functional; conditions: ATCC 19606, 18 h
# Klebsiella pneumoniae [27] = experiment: Antibacterial activity against new delhi metallo-beta-lactamase-1 harboring Klebsiella pneumoniae ATCC BAA-2146 after 18 hrs by CLSI broth microdilution method; type: functional; conditions: ATCC BAA-2146, 18 h
# Escherichia coli [28] = experiment: Antibacterial activity against extended-spectrum beta-lactamase deficient Escherichia coli 1515 after 18 hrs by CLSI broth microdilution method; type: functional; conditions: Escherichia coli, 1515, 18 h
# Escherichia coli [29] = experiment: Antibacterial activity against extended-spectrum beta-lactamase harboring Escherichia coli 12-15 after 18 hrs by CLSI broth microdilution method; type: functional; conditions: 12-15, 18 h
# Enterococcus faecium [30] = experiment: Antibacterial activity against vancomycin-resistant Enterococcus faecium ATCC 700221 after 18 hrs by CLSI broth microdilution method; type: functional; conditions: ATCC 700221, 18 h
SMILES,MIC (Pseudomonas aeruginosa [1]) [µg/mL],MIC (Serratia marcescens) [µg/mL],MIC (Pseudomonas aeruginosa [2]) [µg/mL],MIC (Enterococcus faecalis [3]) [µg/mL],MIC (Klebsiella pneumoniae [4]) [µg/mL],MIC (Klebsiella pneumoniae [5]) [µg/mL],MIC (Citrobacter freundii) [µg/mL],MIC [6] [µg/mL],MIC (Staphylococcus aureus [7]) [µg/mL],MIC (Staphylococcus aureus [8]) [µg/mL],MIC (Enterococcus faecalis [9]) [µg/mL],MIC (Klebsiella pneumoniae [10]) [µg/mL],MIC (Klebsiella pneumoniae [11]) [µg/mL],MIC (Enterococcus faecalis [12]) [µg/mL],MIC [14] [µg/mL],MIC (Escherichia coli [15]) [µg/mL],MIC (Proteus mirabilis) [µg/mL],MIC (Proteus vulgaris) [µg/mL],MIC (Staphylococcus aureus [16]) [µg/mL],MIC (Enterobacter cloacae) [µg/mL],further results
CN(C)C(=N)c1ccc2cc(-c3cnc(-c4cc5ccc(C(=N)N(C)C)cc5[nH]4)cn3)[nH]c2c1,> 128,128,> 128,8,16,16,8,4,4,1,4,16,64,8,0.5,4,64,16,1,8,CC50 at 48 h [13]: 13 µg/mL; MIC (Staphylococcus aureus [17]): 1 µg/mL; MIC (Pseudomonas aeruginosa [18]): 128 µg/mL; MIC (Enterococcus faecium [19]): 4 µg/mL; MIC (Enterococcus faecium [20]): 2 µg/mL; MIC [21]: 32 µg/mL; MIC (Escherichia coli [22]): 4 µg/mL; MIC [23]: 1 µg/mL; MIC (Klebsiella aerogenes): 16 µg/mL; MIC (Staphylococcus aureus [24]): 1 µg/mL; MIC (Enterococcus faecalis [25]): 4 µg/mL; MIC (Providencia rettgeri): 16 µg/mL; MIC [26]: 32 µg/mL; MIC (Klebsiella pneumoniae [27]): 16 µg/mL; MIC (Escherichia coli [28]): 4 µg/mL; MIC (Escherichia coli [29]): 16 µg/mL; MIC (Enterococcus faecium [30]): 4 µg/mL
N=C(c1ccc2cc(-c3ccc(-c4cc5ccc(C(=N)N6CCC6)cc5[nH]4)cc3)[nH]c2c1)N1CCC1,128,32,128,4,8,32,4,0.125,4,2,1,16,32,2,0.125,1,16,32,2,8,CC50 at 48 h [13]: 2.84 µg/mL; MIC (Staphylococcus aureus [17]): 1 µg/mL; MIC (Pseudomonas aeruginosa [18]): 64 µg/mL; MIC (Enterococcus faecium [19]): 2 µg/mL; MIC (Enterococcus faecium [20]): 1 µg/mL; MIC [21]: 8 µg/mL; MIC (Escherichia coli [22]): 2 µg/mL; MIC [23]: 0.125 µg/mL; MIC (Klebsiella aerogenes): 4 µg/mL; MIC (Staphylococcus aureus [24]): 2 µg/mL; MIC (Enterococcus faecalis [25]): 4 µg/mL; MIC (Providencia rettgeri): 8 µg/mL; MIC [26]: 32 µg/mL; MIC (Klebsiella pneumoniae [27]): 16 µg/mL; MIC (Escherichia coli [28]): 2 µg/mL; MIC (Escherichia coli [29]): 2 µg/mL; MIC (Enterococcus faecium [30]): 1 µg/mL
CN(C)C(=N)c1ccc2cc(-c3cnc(-c4cc5ccc(C(=N)N(C)C)cc5[nH]4)s3)[nH]c2c1,> 64,8,> 64,2,4,4,4,0.125,1,0.5,0.5,4,8,1,0.12,2,8,4,0.25,2,CC50 at 48 h [13]: 2.01 µg/mL; MIC (Staphylococcus aureus [17]): 0.25 µg/mL; MIC (Pseudomonas aeruginosa [18]): 16 µg/mL; MIC (Enterococcus faecium [19]): 2 µg/mL; MIC (Enterococcus faecium [20]): 1 µg/mL; MIC [21]: 16 µg/mL; MIC (Escherichia coli [22]): 2 µg/mL; MIC [23]: 0.25 µg/mL; MIC (Klebsiella aerogenes): 4 µg/mL; MIC (Staphylococcus aureus [24]): 0.25 µg/mL; MIC (Enterococcus faecalis [25]): 1 µg/mL; MIC (Providencia rettgeri): 2 µg/mL; MIC [26]: 16 µg/mL; MIC (Klebsiella pneumoniae [27]): 4 µg/mL; MIC (Escherichia coli [28]): 2 µg/mL; MIC (Escherichia coli [29]): 2 µg/mL; MIC (Enterococcus faecium [30]): 1 µg/mL
CN(C)C(=N)c1ccc2cc(-c3ccc(Oc4ccc(-c5cc6ccc(C(=N)N(C)C)cc6[nH]5)cc4)cc3)[nH]c2c1,> 128,32,> 128,2,8,8,8,0.25,0.25,0.25,2,8,8,1,0.125,4,32,8,0.25,64,MIC (Staphylococcus aureus [17]): 0.25 µg/mL; MIC (Pseudomonas aeruginosa [18]): 128 µg/mL; MIC (Enterococcus faecium [19]): 2 µg/mL; MIC (Enterococcus faecium [20]): 2 µg/mL; MIC [21]: 16 µg/mL; MIC (Escherichia coli [22]): 8 µg/mL; MIC [23]: 0.25 µg/mL; MIC (Klebsiella aerogenes): 8 µg/mL; MIC (Staphylococcus aureus [24]): 0.25 µg/mL; MIC (Enterococcus faecalis [25]): 0.5 µg/mL; MIC (Providencia rettgeri): 8 µg/mL; MIC [26]: > 128 µg/mL; MIC (Klebsiella pneumoniae [27]): 8 µg/mL; MIC (Escherichia coli [28]): 4 µg/mL; MIC (Escherichia coli [29]): 8 µg/mL; MIC (Enterococcus faecium [30]): 2 µg/mL
